Common to all, as to type: in vivo
Test [1] relates to HMGB1. Nature of the test: Mouse model of acute lung injury induced by intratracheal LPS; HMGB1 in bronchoalveolar fluid by ELISA. The settings on record: C57Bl/6 male mice, BALF after 48 hours, mean±SEM (n=6). On the procedure: This example illustrates efficacy of compounds of the invention in the inhibition of HMGB1 secretion.
Compounds of the invention were tested in a mouse model of acute lung injury induced by intratracheal administration of lipopolysaccharide (LPS) as described, for instance, in D'Alessio F R. Mouse Models of Acute Lung Injury and ARDS. Methods Mol Biol. 2018, 1809:341-350. C57BI/6 male mice were randomized into eight groups of 6 animals each. Mice were treated intratracheally with 1 μg/mouse of α-Galactosyl Ceramide (α-GalCer, KRN7000, Sigma-Aldrich) and after 24 hours with LPS (E. coli; 1 mg/mouse) and 10 μL/mouse Freund's complete adjuvant. Then, mice received by inhalation 50 μL saline (control); 10, 100, or 250 μg/kg of H-Tyr-D-Ala-Gly-Phe-Leu-Arg-Arg-NH2; 100 μg/kg of H-Tyr-D-Ala-Gly-Phe-Leu-Arg-Arg-NHC2H5; 100 μg/kg of H-Tyr-D-Ala-Gly-Phe-Leu-Arg-Arg-NHC4H9; 100 μg/kg of H-Tyr-D-Ala-Gly-Phe-Leu-Arg-Arg-N(CH3)2; 10 μg/kg H-Tyr-D-Ala-Gly-Phe-Leu-Arg-Arg-OH (Chavkin C et al. 1981); or 250 μg/kg of [D-Ala^2, D-Leu^5]-enkephalin as solutions in 50 μL. saline. After 48 hours, HMGB1 concentrations were measured in bronchoalveolar fluid (BALF) with commercially available ELISA kit for HMGB1 (SEA3999Mu, Cloud-Clone corp.). Results are presented in Tables 1 as mean±SEM (n=6) of HMGB1 levels in BALF, in % of control.
(In general: An ELISA detects its analyte on a solid surface through an enzyme-linked reagent.)

In test [2] the test system is HMGB1. Nature of the test: Mouse model of rheumatoid arthritis (type II collagen-induced); serum HMGB1 by ELISA and arthritis incidence. The settings on record: BALB/c male mice. On the procedure: (§1) This example illustrates that compound (I) is useful for treating arthritis, the HMGB1-dependent disease.
An efficacy of the compound of the invention was tested in a mouse model of rheumatoid arthritis, as described in Brand et al., Nat Protoc. 2007, 2(5):1269-75. Male BALB/c mice were randomized into two groups of 5 animals each. Arthritis was induced in using an intradermal injection of cold emulsion (0.05 ml) prepared by emulsifying chicken type II collagen (CII) solution in acetic acid with complete Freund's adjuvant (CFA) into the base of the tail. Three weeks later, the mice were administered by a second injection in the same manner. Following the booster immunization, mice received 50 μL saline i.p. (control) or 100 μg/kg H-Tyr-D-Ala-Gly-Phe-Leu-Arg-Arg-NH2 in 50 μL saline i.p., once-a-day, for two weeks. The serum level of HMGB1 was determined on day 35 with commercially available ELISA kit for HMGB1 (SEA3999Mu, Cloud-Clone corp.). The clinical severity of arthritis in each paw was quantified according to a graded scale from 0 to 4, as described in Brand et al., Nat Protoc. 2007, 2(5):1269-75. Results are presented in Table 2 as and mean±SEM (n=5) of HMGB1 levels in serum in % of control and arthritis incidence.

For test [3], the system named is HMGB1. The test can be described thus: Mouse model of antigen-induced arthritis (mBSA); knee swelling and HMGB1 in synovial lavage fluid by ELISA. The note with it: C3H/He male mice, 0.14 mg/kg s.c. once-a-day for 5 days, 25th day, mean±SEM (n=6). On the procedure: as §1
An efficacy of H-Tyr-D-Ala-Gly-Phe-Leu-Arg-Arg-NH2 acetate was tested in a mouse model of antigen-induced arthritis induced by methylated bovine serum albumin (mBSA), as described in Brackertz et al., Arthritis Rheum. 1977, 20(3):841-50; Staite et al., Agents and Actions 1989, 27(3/4):338-40. Briefly, male C3H/He mice 8-10 weeks of age were randomized into two groups of 6 animals each. Immunization: the mice were immunized 2 times (on the 0th and 7th days) with s.c. injections of mBSA (50 mg/kg, Sigma-Aldrich) emulsified in 20 μL Freund's complete adjuvant and on the 21st day received intra-articular injection of mBSA (50 mg/kg) in 20 μL saline in the right hind knee as a booster immunization. […] Treatment: the mice received s.c. injections either 0.1 ml saline (control, n=6) or 0.14 mg/kg H-Tyr-D-Ala-Gly-Phe-Leu-Arg-Arg-NH2 acetate in 0.1 ml saline (n=6), once-a-day for 5 consecutive days, beginning 30 min after the booster immunization. The disease course was quantified by assessment of the swelling of the arthritic knee joint on 25th day. HMGB1 levels (pg/ml) in the synovial lavage fluids of the arthritic joint on 25th day was measured using ELISA (SEA3999Mu, Cloud-Clone corp.). […]

This note sets out measurements from US20240199693A1, “HE[…] FOR USE IN THE TREATMENT OF HMGB1-DEPENDENT DISEASES” (priority 2021, published 2024).

Square brackets hold non-standard residues; d marks the D form. Ends that are not written are not given here.

For the substance “H-Tyr-D-Ala-Gly-Phe-Leu-Arg-Arg-N(CH3)2 acetate (H-Y[dA]GFLRR-NMe2; also: acetate salt) [heptapeptide dimethylamide of formula (I)]”, the “HMGB1 in BALF, % of control” value in the test with HMGB1 [1] (100 μg/kg by inhalation) was found to be 42.3 ± 5.9 %.
Turning to “H-Tyr-D-Ala-Gly-Phe-Leu-Arg-Arg-NHC2H5 acetate (H-Y[dA]GFLRR-NHEt; also: acetate salt) [heptapeptide ethylamide of formula (I)]”, the “HMGB1 in BALF, % of control” value in the test with HMGB1 [1] (100 μg/kg by inhalation) is 35.2 ± 7.2 %.
In the case of “H-Tyr-D-Ala-Gly-Phe-Leu-Arg-Arg-NHC4H9 acetate (H-Y[dA]GFLRR-NHC4H9; also: acetate salt) [heptapeptide butylamide of formula (I)]”, the “HMGB1 in BALF, % of control” value with HMGB1 [1] (100 μg/kg by inhalation) came out at 40.1 ± 5.0 %.
Turning to “H-Tyr-D-Ala-Gly-Phe-Leu-Arg-Arg-OH (H-Y[dA]GFLRR-OH; also: acetate salt) [modified [D-Ala^2]-dynorphin (1-7) described by Chavkin C et al. 1981; structurally similar comparison peptide, reference compound]”, the “HMGB1 in BALF, % of control” value in the test on HMGB1 [1] (10 μg/kg by inhalation) was found to be 88.67 ± 10.5%.
For the substance “L-tyrosyl-D-alanyl-L-glycyl-L-phenylala nyl-L-leucyl-L-arginyl-L-arginine amide acetate (Y[dA]GFLRR-NH2; also: acetate salt) [heptapeptide amide of formula (I), Z = NH2]”, the Arthritis incidence in the test on HMGB1 [2] (100 μg/kg i.p. once-a-day for two weeks (n=5)) is listed as 20%. Moreover, in the test with HMGB1 [2] (100 μg/kg i.p. once-a-day for two weeks, day 35, mean±SEM (n=5)), the “HMGB1 in serum, % of control” value stood at 21.5 ± 5.9 %. For the same substance, the “HMGB1 in BALF, % of control” value amounted to 31.8 ± 12.4 % with HMGB1 [1] (100 μg/kg by inhalation) and 34.2 ± 8.0 % with HMGB1 [1] (250 μg/kg by inhalation). The “HMGB1 in synovial lavage fluid of the arthritic joint” value in the test with HMGB1 [3] was found to be 119 ± 38 pg/mL. In the test on HMGB1 [3], this substance registered a Knee joint circumference of 1.32 ± 0.04 cm.
